US11787825B2 (priority 2021, dated 2023)
Converted amounts (≈) assume the structure as drawn. Like-named read-outs stand apart in the source and are kept apart here.

What was measured:
[1] = physchem; conditions: 25 °C, thermodynamic from solid
[2] = 0.1N HCL, 1.0% DMSO, 24-hour incubation at ambient temperature, maximum theoretical compound concentration 100 μM
[3] = 1×PBS buffer (pH 7.4), 1.0% DMSO, 24-hour incubation at ambient temperature, maximum theoretical compound concentration 100 μM

Structure (SMILES): CC(C)(C#Cc1ccc(-c2ccc(Cl)c3c(N(C(=O)CNC(=O)OCOP(=O)(O)O)S(C)(=O)=O)nn(CC(F)(F)F)c23)c([C@H](Cc2cc(F)cc(F)c2)NC(=O)Cn2nc(C(F)(F)F)c3c2C(F)(F)[C@@H]2C[C@H]32)n1)S(C)(=O)=O [Compound 35, (phosphonooxy)methyl (2-(N-(4-chloro-7-(2-((S)-1-(2-((3bS,4aR)-5,5-difluoro-3-(trifluoromethyl)-3b,4,4a,5-tetrahydro-111-cyclopropa[3,4]cyclopenta[1,2-c]pyrazol-1-yl)acetamido)-2-(3,5-difluorophenyl)ethyl)-6-(3-methyl-3-(methylsulfonyl)but-1-yn-1-yl)pyridin-3-yl)-1-(2,2,2-trifluoroethyl)-1H-indazol-3-yl)methylsulfonamido)-2-oxoethyl)carbamate]
- pH 2 solubility [2]: 2 μM
- pH 7 solubility [3]: 48 μM
- solubility ([1]; fassif): 883 µg/mL (≈ 0.749 mM)

Structure (SMILES): CC(C)(C#Cc1ccc(-c2ccc(Cl)c3c(N(C(=O)Cc4ccccc4OP(=O)(O)O)S(C)(=O)=O)nn(CC(F)(F)F)c23)c([C@H](Cc2cc(F)cc(F)c2)NC(=O)Cn2nc(C(F)(F)F)c3c2C(F)(F)[C@@H]2C[C@H]32)n1)S(C)(=O)=O [Compound 45, 2-(2-(N-(4-chloro-7-(2-((S)-1-(2-((3bS,4aR)-5,5-difluoro-3-(trifluoromethyl)-3b,4,4a,5-tetrahydro-1H-cyclopropa[3,4]cyclopenta[1,2-c]pyrazol-1-yl)acetamido)-2-(3,5-difluorophenyl)ethyl)-6-(3-methyl-3-(methylsulfonyl)but-1-yn-1-yl)pyridin-3-yl)-1-(2,2,2-trifluoroethyl)-1H-indazol-3-yl)methylsulfonamido)-2-oxoethyl)phenyl dihydrogen phosphate]
- pH 2 solubility (pH 2): 1/1 μM
- pH 7 solubility (pH 7.4): 1/1 μM
- solubility ([1]; fassif): 456 µg/mL
- solubility ([1]; fessif): 129 µg/mL

Structure (SMILES): Cc1cc(P(=O)(O)O)cc(OP(=O)(O)O)c1C(C)(C)CC(=O)N(c1nn(CC(F)(F)F)c2c(-c3ccc(C#CC(C)(C)S(C)(=O)=O)nc3[C@H](Cc3cc(F)cc(F)c3)NC(=O)Cn3nc(C(F)(F)F)c4c3C(F)(F)[C@@H]3C[C@H]43)ccc(Cl)c12)S(C)(=O)=O [Compound 57, (4-(4-(N-(4-Chloro-7-(2-((S)-1-(2-((3bS,4aR)-5,5-difluoro-3-(trifluoromethyl)-3b,4,4a,5-tetrahydro-111-cyclopropa[3,4]cyclopenta[1,2-c]pyrazol-1-yl)acetamido)-2-(3,5-difluorophenyl)ethyl)-6-(3-methyl-3-(methylsulfonyl)but-1-yn-1-yl)pyridin-3-yl)-1-(2,2,2-trifluoroethyl)-1H-indazol-3-yl)methylsulfonamido)-2-methyl-4-oxobutan-2-yl)-3-methyl-5-(phosphonooxy)phenyl)phosphonic acid]
- pH 2 solubility (pH 2): 1/100 μM
- pH 7 solubility (pH 7.4): 1/100 μM
- solubility ([1]; fassif): 7300 µg/mL (≈ 5.54 mM)

Structure (SMILES): CC(C)(CC(=O)N(c1nn(CC(F)(F)F)c2c(-c3ccc(C#CC(C)(C)S(C)(=O)=O)nc3[C@H](Cc3cc(F)cc(F)c3)NC(=O)Cn3nc(C(F)(F)F)c4c3C(F)(F)[C@@H]3C[C@H]43)ccc(Cl)c12)S(C)(=O)=O)c1c(CC(=O)N[C@@H](CC(=O)O)C(=O)O)cc(C(N)=O)cc1OP(=O)(O)O [Compound 69, (2-(5-carbamoyl-2-(4-(N-(4-chloro-7-(2-((S)-1-(2-((3bS,4aR)-5,5-difluoro-3-(trifluoromethyl)-3b,4,4a,5-tetrahydro-1H-cyclopropa[3,4]cyclopenta[1,2-c]pyrazol-1-yl)acetamido)-2-(3,5-difluorophenyl)ethyl)-6-(3-methyl-3-(methylsulfonyl)but-1-yn-1-yl)pyridin-3-yl)-1-(2,2,2-trifluoroethyl)-1H-indazol-3-yl)methylsulfonamido)-2-methyl-4-oxobutan-2-yl)-3-(phosphonooxy)phenyl)acetyl)-L-aspartic acid]
- pH 2 solubility (pH 2): 3/75 μM
- pH 7 solubility (pH 7.4): 3/75 μM

Structure (SMILES): CC(C)(C#Cc1ccc(-c2ccc(Cl)c3c(N(C(=O)CNC(=O)C(=O)O)S(C)(=O)=O)nn(CC(F)(F)F)c23)c([C@H](Cc2cc(F)cc(F)c2)NC(=O)Cn2nc(C(F)(F)F)c3c2C(F)(F)[C@@H]2C[C@H]32)n1)S(C)(=O)=O [Compound 13, 2-((2-(N-(4-chloro-7-(2-((S)-1-(2-((3bS,4aR)-5,5-difluoro-3-(trifluoromethyl)-3b,4,4a,5-tetrahydro-1H-cyclopropa[3,4]cyclopenta[1,2-c]pyrazol-1-yl)acetamido)-2-(3,5-difluorophenyl)ethyl)-6-(3-methyl-3-(methylsulfonyl)but-1-yn-1-yl)pyridin-3-yl)-1-(2,2,2-trifluoroethyl)-1H-indazol-3-yl)methylsulfonamido)-2-oxoethyl)amino)-2-oxoacetic acid]
- pH 2 solubility [2]: 1 μM
- pH 7 solubility [3]: 90 μM

Structure (SMILES): CC(C)[C@@H](C(=O)N(c1nn(CC(F)(F)F)c2c(-c3ccc(C#CC(C)(C)S(C)(=O)=O)nc3[C@H](Cc3cc(F)cc(F)c3)NC(=O)Cn3nc(C(F)(F)F)c4c3C(F)(F)[C@@H]3C[C@H]43)ccc(Cl)c12)S(C)(=O)=O)N(C)C [Compound 8, N-(4-chloro-7-(2-((S)-1-(2-((3bS,4aR)-5,5-difluoro-3-(trifluoromethyl)-3b,4,4a,5-tetrahydro-1H-cyclopropa[3,4]cyclopenta[1,2-c]pyrazol-1-yl)acetamido)-2-(3,5-difluorophenyl)ethyl)-6-(3-methyl-3-(methylsulfonyl)but-1-yn-1-yl)pyridin-3-yl)-1-(2,2,2-trifluoroethyl)-1H-indazol-3-yl)-2-(dimethylamino)-3-methyl-N-(methylsulfonyl)butanamide]
- pH 2 solubility [2]: 51 μM
- pH 7 solubility [3]: 1 μM

Structure (SMILES): CN(C)CCCC[C@H](N)C(=O)N(c1nn(CC(F)(F)F)c2c(-c3ccc(C#CC(C)(C)S(C)(=O)=O)nc3[C@H](Cc3cc(F)cc(F)c3)NC(=O)Cn3nc(C(F)(F)F)c4c3C(F)(F)[C@@H]3C[C@H]43)ccc(Cl)c12)S(C)(=O)=O [Compound 16, ((S)-2-amino-N-(4-chloro-7-(2-((S)-1-(2-((3bS,4aR)-5,5-difluoro-3-(trifluoromethyl)-3b,4,4a,5-tetrahydro-1H-cyclopropa[3,4]cyclopenta[1,2-c]pyrazolyl)acetamido)-2-(3,5-difluorophenyl)ethyl)-6-(3-methyl-3-(methylsulfonyl)but-1-ynyl)pyridin-3-yl)-1-(2,2,2-trifluoroethyl)-1H-indazol-3-yl)-6-(dimethylamino)-N-(methylsulfonyl)hexanamide)]
- pH 2 solubility [2]: 92 μM
- pH 7 solubility [3]: 20 μM

Structure (SMILES): CC(C)(C#Cc1ccc(-c2ccc(Cl)c3c(N(C(=O)[C@H](CCC(=O)O)NC(=O)C(=O)O)S(C)(=O)=O)nn(CC(F)(F)F)c23)c([C@H](Cc2cc(F)cc(F)c2)NC(=O)Cn2nc(C(F)(F)F)c3c2C(F)(F)[C@@H]2C[C@H]32)n1)S(C)(=O)=O [Compound 24, (S)-4-(carboxyformamido)-5-(N-(4-chloro-7-(2-((S)-1-(2-((3bS,4aR)-5,5-difluoro-3-(trifluoromethyl)-3b,4,4a,5-tetrahydro-111-cyclopropa[3,4]cyclopenta[1,2-c]pyrazol-1-yl)acetamido)-2-(3,5-difluorophenyl)ethyl)-6-(3-methyl-3-(methylsulfonyl)but-1-yn-1-yl)pyridin-3-yl)-1-(2,2,2-trifluoroethyl)-1H-indazol-3-yl)methylsulfonamido)-5-oxopentanoic acid]
- pH 2 solubility [2]: 1 μM
- pH 7 solubility [3]: 14 μM
